Measured values: patent US12473290B2, “Imidazopyridazine compounds useful as modulators of IL-12, IL-23 and/or IFN alpha responses” (BRISTOL-MYERS SQUIBB COMPANY, priority 2019, dated 2025)

Tests used:
[1] = tested on: IFNα Kit225 Reporter (Kit225 T cells with a stably-integrated STAT-dependent luciferase reporter, stimulated with IFNα); assay: Kit225 T Cell Assay, IFNα-stimulated STAT-dependent luciferase reporter; assay type: cell-based; settings: 200 U/mL human recombinant IFNα, 5-6 hours, luciferase expression
Method: (§1) Kit225 T cells with a stably-integrated STAT-dependent luciferase reporter were plated in RPMI (Gibco) containing 10% heat-inactivated FBS (Gibco) and 100 U/mL PenStrep (Gibco). The cells were then stimulated with either 20 ng/mL human recombinant IL-23 or 200 U/mL human recombinant IFNα (PBL InterferonSource) for 5-6 hours. Luciferase expression was measured using the STEADY-GLO® Luciferase Assay System (Promega) according to the manufacturer's instructions. Inhibition data were calculated by comparison to no inhibitor control wells for 0% inhibition and non-stimulated control wells for 100% inhibition. Dose response curves were generated to determine the concentration required to inhibit 50% of cellular response (IC50) as derived by non-linear regression analysis.

[2] = Kit225 T Cell Assay, IL-23-stimulated STAT-dependent luciferase reporter; assay type: cell-based; settings: Kit225 T cells, 20 ng/mL human recombinant IL-23, 5-6 hours, luciferase expression
Method: as §1

| Compound | IC50 [1] [nM] | IC50 [2] [nM] |
| --- | --- | --- |
| CC(C)Oc1nc(Nc2cc(N[C@@H]3CCCC[C@H]3O)nn3c(C#N)cnc23)ccc1C(=O)N1CCCC1 [Example 1, 6-{[(1R,2R)-2-hydroxycyclohexyl]amino}-8-{[6-(propan-2-yloxy)-5-(pyrrolidine-1-carbonyl)pyridin-2-yl]amino}imidazo[1,2-b]pyridazine-3-carbonitrile] | 830 | 240 |
| CN(C)c1nc(Nc2cc(N[C@@H]3CCCC[C@H]3O)nn3c(C#N)cnc23)ccc1C(=O)N1CCCC1 [Example 3, 8-{[6-(dimethylamino)-5-(pyrrolidine-1-carbonyl)pyridin-2-yl]amino}-6-{[(1R,2R)-2-hydroxycyclohexyl]amino}imidazo[1,2-b]pyridazine-3-carbonitrile] | 190 | 140 |
| N#Cc1cnc2c(Nc3ccc(C(=O)N4CCCC4)c(OCC(F)(F)F)n3)cc(N[C@@H]3CCCC[C@H]3O)nn12 [Example 4, 6-{[(1R,2R)-2-hydroxycyclohexyl]amino}-8-{[5-(pyrrolidine-1-carbonyl)-6-(2,2,2-trifluoroethoxy)pyridin-2-yl]amino}imidazo[1,2-b]pyridazine-3-carbonitrile] | 520 | 460 |
| CC(C)(C)Oc1nc(Nc2cc(N[C@H]3CCCC[C@@H]3O)nn3c(C#N)cnc23)ccc1C(=O)N1CCCC1 [Example 5, 8-{[6-(tert-butoxy)-5-(pyrrolidine-1-carbonyl)pyridin-2-yl]amino}-6-{[(1S,2S)-2-hydroxycyclohexyl]amino}imidazo[1,2-b]pyridazine-3-carbonitrile] | 1300 | 1130 |
| CC(C)(O)C(=O)Nc1cccc(Nc2cc(N[C@@H]3CCCC[C@H]3O)nn3c(C#N)cnc23)n1 [Example 9, N-{6-[(3-cyano-6-{[(1R,2R)-2-hydroxycyclohexyl]amino}imidazo[1,2-b]pyridazin-8-yl)amino]pyridin-2-yl}-2-hydroxy-2-methylpropanamide] | 390 | 220 |
| CC(C)(C)Oc1nc(Nc2cc(N[C@@H]3CCCC[C@H]3O)nn3c(C#N)cnc23)ccc1C(=O)N1CCCC1 [Example 12, 8-{[6-(tert-butoxy)-5-(pyrrolidine-1-carbonyl)pyridin-2-yl]amino}-6-{[(1R,2R)-2-hydroxycyclohexyl]amino}imidazo[1,2-b]pyridazine-3-carbonitrile] | 380 | 2730 |
| N#Cc1cnc2c(Nc3ccc(C(=O)N4CCCC4)c(OCC(F)F)n3)cc(N[C@H]3CCCC[C@@H]3O)nn12 [Example 13, 8-{[6-(2,2-difluoroethoxy)-5-(pyrrolidine-1-carbonyl)pyridin-2-yl]amino}-6-{[(1S,2S)-2-hydroxycyclohexyl]amino}imidazo[1,2-b]pyridazine-3-carbonitrile] | 640 | 450 |
| N#Cc1cnc2c(Nc3ccc(C(=O)N4CCCC4)c(N4CCCC4)n3)cc(N[C@H]3CCCC[C@@H]3O)nn12 [Example 14, 6-{[(1S,2S)-2-hydroxycyclohexyl]amino}-8-{[6-(pyrrolidin-1-yl)-5-(pyrrolidine-1-carbonyl)pyridin-2-yl]amino}imidazo[1,2-b]pyridazine-3-carbonitrile] | 490 | 660 |
| CC1(C)CCCN1C(=O)c1ccc(Nc2cc(N[C@@H]3CCCC[C@H]3O)nn3c(C#N)cnc23)nc1 [Example 16, 8-{[5-(2,2-dimethylpyrrolidine-1-carbonyl)pyridin-2-yl]amino}-6-{[(1R,2R)-2-hydroxycyclohexyl]amino}imidazo[1,2-b]pyridazine-3-carbonitrile] | 130 | 90 |
| CC(C)(C)NC(=O)c1cccc(Nc2cc(NC34CC5CC(CC(O)(C5)C3)C4)nn3c(C#N)cnc23)n1 [Example 17, N-tert-butyl-6-({3-cyano-6-[(3-hydroxyadamantan-1-yl)amino]imidazo[1,2-b]pyridazin-8-yl}amino)pyridine-2-carboxamide] | 490 | 420 |
| COc1cccc2ccc(Nc3cc(NC45CC6CC(CC(O)(C6)C4)C5)nn4c(C#N)cnc34)nc12 [Example 18, 6-[(3-hydroxyadamantan-1-yl)amino]-8-[(8-methoxyquinolin-2-yl)amino]imidazo[1,2-b]pyridazine-3-carbonitrile] | 460 | 190 |
| N#Cc1cnc2c(Nc3ccc4c(C(F)(F)F)cc(C(F)(F)F)nc4n3)cc(NC34CC5CC(O)(CC(O)(C5)C3)C4)nn12 [Example 19, 8-{[5,7-bis(trifluoromethyl)-1,8-naphthyridin-2-yl]amino}-6-[(3,5-dihydroxyadamantan-1-yl)amino]imidazo[1,2-b]pyridazine-3-carbonitrile] | 810 | 590 |
| COc1ccc(Nc2cc(NC34CC5CC(O)(CC(O)(C5)C3)C4)nn3c(C#N)cnc23)nc1NC(=O)C(C)(C)C [Example 21, N-[6-({3-cyano-6-[(3,5-dihydroxyadamantan-1-yl)amino]imidazo[1,2-b]pyridazin-8-yl}amino)-3-methoxypyridin-2-yl]-2,2-dimethylpropanamide] | 760 | 430 |
| COc1cccc2ccc(Nc3cc(NC45CC6CC(O)(CC(F)(C6)C4)C5)nn4c(C#N)cnc34)nc12 (centres unmarked) [Example 22, 6-[(3-fluoro-5-hydroxyadamantan-1-yl)amino]-8-[(8-methoxyquinolin-2-yl)amino]imidazo[1,2-b]pyridazine-3-carbonitrile] | 850 | 360 |
| N#Cc1cnc2c(Nc3ccc(C(=O)N4CCCC4)cn3)cc(NC3CCOCC3)nn12 [Example 23, 6-[(oxan-4-yl)amino]-8-{[5-(pyrrolidine-1-carbonyl)pyridin-2-yl]amino}imidazo[1,2-b]pyridazine-3-carbonitrile] | 340 | 470 |
| CC(C)(C)Oc1nc(Nc2cc(NC3CCOCC3)nn3c(C#N)cnc23)ccc1C(=O)N1CCCC1 [Example 24, 8-{[6-(tert-butoxy)-5-(pyrrolidine-1-carbonyl)pyridin-2-yl]amino}-6-[(oxan-4-yl)amino]imidazo[1,2-b]pyridazine-3-carbonitrile] | 600 | 700 |
| CC(C)(O)C(=O)Nc1cccc(Nc2cc(NC3CCOCC3)nn3c(C#N)cnc23)n1 [Example 25, N-[6-({3-cyano-6-[(oxan-4-yl)amino]imidazo[1,2-b]pyridazin-8-yl}amino)pyridin-2-yl]-2-hydroxy-2-methylpropanamide] | 450 | 340 |

Further lines, results first:

| IC50 [1] [nM] | IC50 [2] [nM] | Compound |
| --- | --- | --- |
| 690 | 280 | N#Cc1cnc2c(Nc3ccc(C(=O)N4CCCC4)c(N4CCCC4)n3)cc(N[C@@H]3CCCC[C@H]3O)nn12 [Example 2, 6-{[(1R,2R)-2-hydroxycyclohexyl]amino}-8-{[6-(pyrrolidin-1-yl)-5-(pyrrolidine-1-carbonyl)pyridin-2-yl]amino}imidazo[1,2-b]pyridazine-3-carbonitrile] |
| 450 | 580 | CC(C)(C)N1CCN(c2cccc(Nc3cc(N[C@@H]4CCCC[C@H]4O)nn4c(C#N)cnc34)n2)C1=O [Example 6, 8-{[6-(3-tert-butyl-2-oxoimidazolidin-1-yl)pyridin-2-yl]amino}-6-{[(1R,2R)-2-hydroxycyclohexyl]amino}imidazo[1,2-b]pyridazine-3-carbonitrile] |
| 810 | 610 | CC(C)(C)C(=O)Nc1cccc(Nc2cc(N[C@@H]3CCCC[C@H]3O)nn3c(C#N)cnc23)n1 [Example 7, N-{6-[(3-cyano-6-{[(1R,2R)-2-hydroxycyclohexyl]amino}imidazo[1,2-b]pyridazin-8-yl)amino]pyridin-2-yl}-2,2-dimethylpropanamide] |
| 280 | 490 | CC1(C(=O)Nc2cccc(Nc3cc(N[C@@H]4CCCC[C@H]4O)nn4c(C#N)cnc34)n2)CC1 [Example 8, N-{6-[(3-cyano-6-{[(1R,2R)-2-hydroxycyclohexyl]amino}imidazo[1,2-b]pyridazin-8-yl)amino]pyridin-2-yl}-1-methylcyclopropane-1-carboxamide] |
| 270 | 150 | N#Cc1cnc2c(Nc3cccc(NC(=O)c4ccccc4)n3)cc(N[C@@H]3CCCC[C@H]3O)nn12 [Example 10, N-{6-[(3-cyano-6-{[(1R,2R)-2-hydroxycyclohexyl]amino}imidazo[1,2-b]pyridazin-8-yl)amino]pyridin-2-yl}benzamide] |
| 360 | 560 | CC1(C)CCCN1C(=O)c1ccc(Nc2cc(N[C@H]3CCCC[C@@H]3O)nn3c(C#N)cnc23)nc1 [Example 11, 8-{[5-(2,2-dimethylpyrrolidine-1-carbonyl)pyridin-2-yl]amino}-6-{[(1S,2S)-2-hydroxycyclohexyl]amino}imidazo[1,2-b]pyridazine-3-carbonitrile] |
| 820 | 650 | N#Cc1cnc2c(Nc3ccc(C(=O)N4CCCC4)c(N4CC(F)C4)n3)cc(N[C@H]3CCCC[C@@H]3O)nn12 [Example 15, 8-{[6-(3-fluoroazetidin-1-yl)-5-(pyrrolidine-1-carbonyl)pyridin-2-yl]amino}-6-{[(1S,2S)-2-hydroxycyclohexyl]amino}imidazo[1,2-b]pyridazine-3-carbonitrile] |
| 150 | 440 | N#Cc1cnc2c(Nc3cccc(C(F)(F)F)n3)cc(NC34CC5CC(O)(CC(O)(C5)C3)C4)nn12 [Example 20, 6-[(3,5-dihydroxyadamantan-1-yl)amino]-8-{[6-(trifluoromethyl)pyridin-2-yl]amino}imidazo[1,2-b]pyridazine-3-carbonitrile] |
